According to patent US20140171455A1, “Reduction of Microglia-Mediated Neurotoxicity by Kv1.3 Inhibition” (The Regents of the University of California, priority 2011, published 2014):
pIC50: −log10 of the molar value. Like-named read-outs stand apart in the source and are kept apart here. Bridge positions count the residues as written; N and C are the ends. Peptide text beside a SMILES is read from it.

Legend:
Kv1.3 = target: T1, Kv1.3 (Mus musculus, UniProt P16390); assay: Whole-cell voltage-clamp of Kv currents in cultured stimulated microglia; assay type: cell-based; conditions: read-out: IC50 on microglial Kv current
T1 construct: pharmacological characterization of currents from cultured microglia stimulated for 48 hours with AbO or LPS; endogenous in cells; host or cells: primary microglia cultured from newborn C57Bl/6 mice, stimulated 48 h with AbO or LPS
T1 sequence (P16390 whole entry): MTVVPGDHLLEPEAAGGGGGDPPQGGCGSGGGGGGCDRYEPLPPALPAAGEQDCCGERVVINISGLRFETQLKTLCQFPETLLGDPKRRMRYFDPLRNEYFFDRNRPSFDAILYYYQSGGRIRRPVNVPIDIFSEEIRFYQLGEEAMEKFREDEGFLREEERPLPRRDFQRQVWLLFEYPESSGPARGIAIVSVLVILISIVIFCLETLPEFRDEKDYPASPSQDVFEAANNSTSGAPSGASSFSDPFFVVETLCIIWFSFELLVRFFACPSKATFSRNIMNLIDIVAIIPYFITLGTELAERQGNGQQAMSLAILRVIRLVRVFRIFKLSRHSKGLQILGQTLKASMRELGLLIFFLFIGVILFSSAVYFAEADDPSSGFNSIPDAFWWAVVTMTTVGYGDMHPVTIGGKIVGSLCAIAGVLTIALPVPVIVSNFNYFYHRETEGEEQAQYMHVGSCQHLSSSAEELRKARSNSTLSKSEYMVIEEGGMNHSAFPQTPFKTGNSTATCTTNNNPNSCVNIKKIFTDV
Protocol: In order to determine if Kv1.3 is indeed functionally expressed in mouse microglia Applicants performed electrophysiological experiments on cultured mouse microglia in the whole-cell mode of the patch-clamp technique. Kv currents were elicited with 500 millisecond pulses from a holding-potential of −100 mV to +40 mV applied every 45 sec.
Microglia cultured from newborn C57B1/6 mice were treated with lipopolysaccharides (LPS) or AbO for 24 or 48 hrs. […] Kv currents were elicited by 500 ms voltage steps from −80 to 40 mV (representative traces on right).

cultured mouse microglia = assay: Abeta-induced activation of cultured mouse microglia (proliferation, morphology, NFkB, NO, TNF-alpha); assay type: cell-based
Protocol: FIGS. 1A and 1B show data regarding AβO-induced NFκ-B and NO, respectively.
Two (2) hours after administration of the indicated treatment, the mouse brains were sectioned and immunostained with an antibody for p65 of NFκB to mark cells with NFκB activation. Numbers of p65-positive cells per 200 DAPI-labeled cells were determined.
(§1) Measurements were made in the conditioned medium and normalized to the amount of total cellular protein in each culture. n=4-6, *p<0.001 compared with control, **p<0.001 compared with the “AβO” group. […] NO released by AβO-treated microglia is the major soluble mediator of AβO-induced microglial neurotoxicity.

[1] = cited from earlier work
[2] = test system: rat hippocampal slices (CA1 LTP); assay: CA1 LTP induction in rat hippocampal slices with AbO; assay type: cell-based; conditions: PAP-1 10 μM pretreatment 30 min prior to AbO 50 nM; 45 min after HFS
Protocol: FIG. 7 summarizes an experiment wherein, under control conditions, CA1 LTP was induced by high frequency stimulation (HFS), which consists of 4 trans of 100Hz basal intensity stimulation lasting for 1 s per train. In control (vehicle only) group, following the HFS, the amplitude or slope of fEPSP was increased to 209±28% of baseline at 45 min after HFS. The bath application of AbO (50 nM) for 10 min blocked the induction of LTP (126±6.7% of control). […] The mean of five consecutive measurements at the end of LTP induction (45 min) was normalized to the baseline (100%) which was the mean of five consecutive measurements just before the HFS.

[3] = rodents or primates; cited from earlier work
[4] = rats; cited from earlier work
[5] = rhesus macaques; cited from earlier work
hippocampal slices = assay: Hippocampal slices: AbetaO-induced microglia activation and neuronal damage; assay type: cell-based, mouse; conditions: AβO 20 nM, PAP-1 1 μM
Description: Three consecutive hippocampal slices were obtained from mouse brain and from mice received the same indicated treatment. One slice was used for CD11b staining (green) for activated microglia (slices outlined by Hoechst stain), one for propidium iodide (PI) uptake, and one for Fluoro-Jade C stain for neuronal damage. DG: dentate gyrus.

microglia = assay: Abeta uptake (phagocytosis) assay in microglia by flow cytometry; assay type: cell-based; conditions: 2 hrs pre-treatment
Description: Using an Aβ uptake assay, Applicants pretreated microglia with either control (vehicle only), anti-SRA (scavenger receptor A) antibody, doxycycline or PAP-1. FIG. 2 is a bar graph showing cell-associated fluorescence as measured by flow cytometry after 2 hrs of such pre-treatment. (n=3, *p<0.01 and **p<0.001 compared with control).

[6] = test system: AβO-stimulated cultured microglia; assay: AbetaO-induced microglial neurotoxicity (cultured microglia); assay type: cell-based, mouse; conditions: co-treating AβO-stimulated cultured microglia; AβO 20 nM, PAP-1 1 μM
Description: as §1

SMILES	pIC50 (Kv1.3; cultured microglia stimulated for 48 hours with AbO)	pIC50 (Kv1.3; cultured microglia stimulated for 48 hours with LPS)	signs of microglia activation induced by AβO (proliferation, morphological transformation, NFκ-B activation, NO production) (cultured mouse microglia; cultured mouse microglia, AβO 20 nM, PAP-1 1 μM)	increased microglia release of tumor necrosis factor-α, NFκ-B activation and NO production induced by fAβ stimulation (cultured mouse microglia; fAβ stimulation)	oral bioavailability ([1]; in vivo, po)	brain concentrations versus plasma concentrations (crosses the blood brain barrier) ([1]; pharmacokinetic studies)	inhibition by AbO of the induction of CA1 LTP [2]	long-term toxicity [3]	half-life [4]	half-life [5]	AβO-induced microglia activation (CD11b staining) (hippocampal slices)	AβO-induced neuronal damage (propidium iodide uptake and Fluoro-Jade C staining) (hippocampal slices)	Aβ cell-associated fluorescence (ability of microglia to phagocytose Aβ) (microglia)	AβO-induced microglial neurotoxicity [6]
CC[C@H](C)[C@H](NC(=O)[C@@H](N)[C@@H](C)O)C(=O)N[C@H](C(=O)N[C@@H](CC(N)=O)C(=O)N[C@H](C(=O)N[C@@H](CCCCN)C(=O)N[C@H]1CSSC[C@@H]2NC(=O)[C@H](CCCCN)NC(=O)[C@H](C)NC(=O)CNC(=O)[C@H](C)NC(=O)[C@H](CO)NC(=O)[C@H](CCC(N)=O)NC(=O)CNC(=O)[C@H](Cc3ccccc3)NC(=O)[C@H](CCC(N)=O)NC(=O)[C@H](C)NC(=O)[C@H](CCCCN)NC(=O)[C@@H]3CSSC[C@@H](C(=O)N[C@@H](Cc4ccc(O)cc4)C(=O)N4CCC[C@H]4C(=O)N[C@@H](Cc4c[nH]cn4)C(=O)O)NC(=O)[C@H](CCCCN)NC(=O)[C@H](CSSC[C@H](NC(=O)[C@H](CCC(N)=O)NC(=O)[C@H](CCCCN)NC(=O)[C@@H]4CCCN4C(=O)[C@H](CO)NC(=O)[C@H]([C@@H](C)O)NC1=O)C(=O)N[C@@H](CC(C)C)C(=O)N1CCC[C@H]1C(=O)N1CCC[C@H]1C(=O)N3)NC(=O)[C@H](CCCCN)NC(=O)CNC(=O)[C@H](CC(N)=O)NC(=O)[C@H](CCSC)NC2=O)C(C)C)[C@@H](C)CC [MgTX] (H-TIINVKCTSPKQCLPPCKAQFGQSAGAKCMNGKCKCYPH-OH; disulfide 7-29, 13-34, 17-36 (inferred); N-terminus and C-terminus assumed)	10.10	10.10	–	–	–	–	–	–	–	–	–	–	–	–
O=c1ccc2c(OCCCCOc3ccccc3)c3ccoc3cc2o1 [PAP-1, 5-(4-Phenoxybutoxy)psoralen]	–	–	inhibited	blocked	orally bioavailable	equal or slightly exceed plasma-concentrations	prevented	has not exhibited long-term toxicity	3 h	6.7 h	substantially reduced	blocked	did not impair	blocked
